Data reported in patent US20240217959A1, “New (Homo)Piperidinyl Heterocycles as Sigma Ligands” (ACONDICIONAMIENTO TARRASENSE, priority 2021, published 2024).

How the values were obtained:
[1] = molecular target: T1, human σ1 receptor (Homo sapiens, UniProt Q99720); experiment: Human σ1 receptor radioligand assay ([3H](+)-pentazocine); settings: transfected HEK-293 membranes, 5 nM [3H](+)-pentazocine, 37° C. 120 minutes; read-out: Binding σ-1
T1 construct: expressed in transfected cells; host or cells: HEK-293
Procedure: Transfected HEK-293 membranes (7 μg) were incubated with 5 nM of [^3H](+)-pentazocine in assay buffer containing Tris-HCl 50 mM at pH 8. NBS (non-specific binding) was measured by adding 10 μM haloperidol. The binding of the test compound was measured at either one concentration (% inhibition at 1 or 10 μM) or five different concentrations to determine affinity values (Ki). Plates were incubated at 37° C. for 120 minutes. After the incubation period, the reaction mix was then transferred to MultiScreen HTS, FC plates (Millipore), filtered and plates were washed 3 times with ice-cold 10 mM Tris-HCL (pH 7.4). Filters were dried and counted at approximately 40% efficiency in a MicroBeta scintillation counter (Perkin-Elmer) using EcoScint liquid scintillation cocktail.

[2] = molecular target: T2, human σ2/TMEM97 receptor (Homo sapiens, UniProt Q5BJF2); experiment: Binding assay to human σ2/TMEM97 receptor ([3H]-DTG); settings: transfected HEK-293 membranes, 10 nM [3H]-DTG, 25° C. 120 minutes; read-out: Binding σ-2
T2 construct: expressed in transfected cells; host or cells: HEK-293
Procedure: Transfected HEK-293 membranes (15 μg) were incubated with 10 nM [^3H]-1,3-Di-o-tolylguanidine (DTG) in assay buffer containing Tris-HCl 50 mM at pH 8.0. NSB (non-specific binding) was measured by adding 10 μM haloperidol. The binding of the test compound was measured at either one concentration (% inhibition at 1 or 10 μM) or five different concentrations to determine affinity values (Ki). Plates were incubated at 25° C. for 120 minutes. After the incubation period, the reaction mix was transferred to MultiScreen HTS, FC plates (Millipore), filtered and washed 3 times with ice-cold 10 mM Tris-HCL (pH 8.0). Filters were dried and counted at approximately 40% efficiency in a MicroBeta scintillation counter (Perkin-Elmer) using EcoScint liquid scintillation cocktail.

T1 sequence (Q99720 whole entry): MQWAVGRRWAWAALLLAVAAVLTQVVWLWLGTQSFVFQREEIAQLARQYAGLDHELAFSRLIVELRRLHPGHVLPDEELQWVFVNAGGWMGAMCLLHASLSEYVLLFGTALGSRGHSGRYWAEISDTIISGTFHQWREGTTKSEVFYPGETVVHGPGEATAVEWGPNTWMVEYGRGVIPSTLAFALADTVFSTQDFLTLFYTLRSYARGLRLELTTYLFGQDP
T2 sequence (Q5BJF2 whole entry): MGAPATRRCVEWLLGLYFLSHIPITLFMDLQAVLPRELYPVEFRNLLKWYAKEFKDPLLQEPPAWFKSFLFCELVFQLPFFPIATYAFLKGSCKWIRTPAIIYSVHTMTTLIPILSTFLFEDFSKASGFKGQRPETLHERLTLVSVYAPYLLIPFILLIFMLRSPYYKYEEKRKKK

SMILES | Ki [1] | Ki [2]
Cc1cc(-c2cnc(C3CC3)nc2C2CCN(CC(=O)N3CCOCC3)CC2)on1 [Example 1, 2-(4-(2-Cyclopropyl-5-(3-methylisoxazol-5-yl)pyrimidin-4-yl)piperidin-1-yl)-1-morpholinoethanone] | 500 to 1000 nM | < 100 nM
Cc1cc(-c2cnc(C(C)C)nc2C2CCN(CC(=O)N3CCOCC3)CC2)on1 [Example 2, 2-(4-(2-Isopropyl-5-(3-methylisoxazol-5-yl)pyrimidin-4-yl)piperidin-1-yl)-1-morpholinoethanone] | > 1000 nM | < 100 nM
CCc1ncc(-c2cc(C)no2)c(C2CCN(CC(=O)N3CCCOCC3)CC2)n1 [Example 3, 2-(4-(2-Ethyl-5-(3-methylisoxazol-5-yl)pyrimidin-4-yl)piperidin-1-yl)-1-(1,4-oxazepan-4-yl)ethanone] | > 1000 nM | < 100 nM
CCc1ncc(-c2cc(C)no2)c(C2CCN(CC(=O)N3CCC4(CCOC4)CC3)CC2)n1 [Example 4, 2-(4-(2-Ethyl-5-(3-methylisoxazol-5-yl)pyrimidin-4-yl)piperidin-1-yl)-1-(2-oxa-8-azaspiro[4.5]decan-8-yl)ethanone] | > 1000 nM | < 100 nM
CCc1ncc(-c2cc(C)no2)c(C2CCN(CC(=O)N3CCCN(C)CC3)CC2)n1 [Example 7, 2-(4-(2-Ethyl-5-(3-methylisoxazol-5-yl)pyrimidin-4-yl)piperidin-1-yl)-1-(4-methyl-1,4-diazepan-1-yl)ethanone] | > 1000 nM | < 100 nM
CCc1ncc(-c2cc(C)no2)c(C2CCN(CC(=O)N3CCCCC3)CC2)n1 [Example 11, 2-(4-(2-Ethyl-5-(3-methylisoxazol-5-yl)pyrimidin-4-yl)piperidin-1-yl)-1-(piperidin-1-yl)ethan-1-one] | 500 to 1000 nM | < 100 nM
CCCc1ncc(-c2cc(C)no2)c(C2CCN(CC(=O)N3CCOCC3)CC2)n1 [Example 12, 2-(4-(5-(3-Methylisoxazol-5-yl)-2-propylpyrimidin-4-yl)piperidin-1-yl)-1-morpholinoethan-1-one] | > 1000 nM | < 100 nM
CCc1ncc(-c2ccccn2)c(C2CCN(CC(=O)N3CCOCC3)CC2)n1 [Example 13, 2-(4-(2-Ethyl-5-(pyridin-2-yl)pyrimidin-4-yl)piperidin-1-yl)-1-morpholinoethan-1-one] | > 1000 nM | 100 to 500 nM
CCc1ncc(-c2nccn2C)c(C2CCN(CC(=O)N3CCOCC3)CC2)n1 [Example 16, 2-(4-(2-Ethyl-5-(1-methyl-1H-imidazol-2-yl)pyrimidin-4-yl)piperidin-1-yl)-1-morpholinoethan-1-one] | > 1000 nM | 500 to 1000 nM
CCc1ncc(-c2cc(C)no2)c([C@@H]2CCCN(CC(=O)N3CCOCC3)CC2)n1 [Example 17, (R)-2-(4-(2-Ethyl-5-(3-methylisoxazol-5-yl)pyrimidin-4-yl)azepan-1-yl)-1-morpholinoethan-1-one] | 100 to 500 nM | 100 to 500 nM
Cc1ccc(-c2ccnc(C)n2)c(C2CCN(CC(=O)N3CCOCC3)CC2)n1 [Example 19, 2-(4-(6-Methyl-3-(2-methylpyrimidin-4-yl)pyridin-2-yl)piperidin-1-yl)-1-morpholinoethan-1-one] | 500 to 1000 nM | 500 to 1000 nM

Further lines, results first:

Ki [1] | Ki [2] | SMILES
> 1000 nM | < 100 nM | CCc1ncc(-c2cc(C)no2)c(C2CCN(CC(=O)N3CCOCC3)CC2)n1 [Example 5, 2-(4-(2-Ethyl-5-(3-methylisoxazol-5-yl)pyrimidin-4-yl)piperidin-1-yl)-1-morpholinoethanone]
500 to 1000 nM | < 100 nM | CCc1ncc(-c2cc(C)no2)c(C2CCN(CC(=O)N3CCC(F)(F)CC3)CC2)n1 [Example 6, 1-(4,4-Difluoropiperidin-1-yl)-2-(4-(2-ethyl-5-(3-methylisoxazol-5-yl)pyrimidin-4-yl)piperidin-1-yl)ethanone]
> 1000 nM | < 100 nM | Cc1cc(-c2cnc(C(F)(F)F)nc2C2CCN(CC(=O)N3CCOCC3)CC2)on1 [Example 8, 2-(4-(5-(3-Methylisoxazol-5-yl)-2-(trifluoromethyl)pyrimidin-4-yl)piperidin-1-yl)-1-morpholinoethanone]
> 1000 nM | < 100 nM | CCc1ncc(-c2cc(C)no2)c(C2CCN(CCC(=O)N3CCOCC3)CC2)n1 [Example 9, 3-(4-(2-Ethyl-5-(3-methylisoxazol-5-yl)pyrimidin-4-yl)piperidin-1-yl)-1-morpholinopropan-1-one]
100 to 500 nM | < 100 nM | CCc1ncc(-c2cc(C)no2)c(C2CCN(CCN3CCOCC3)CC2)n1 [Example 10, 4-(2-(4-(2-Ethyl-5-(3-methylisoxazol-5-yl)pyrimidin-4-yl)piperidin-1-yl)ethyl)morpholine]
> 1000 nM | 100 to 500 nM | CCc1ncc(-c2cccc(C)n2)c(C2CCN(CC(=O)N3CCOCC3)CC2)n1 [Example 14, 2-(4-(2-Ethyl-5-(6-methylpyridin-2-yl)pyrimidin-4-yl)piperidin-1-yl)-1-morpholinoethan-1-one]
500 to 1000 nM | 500 to 1000 nM | CCc1ncc(-c2ccncc2)c(C2CCN(CC(=O)N3CCOCC3)CC2)n1 [Example 15, 2-(4-(2-Ethyl-5-(pyridin-4-yl)pyrimidin-4-yl)piperidin-1-yl)-1-morpholinoethan-1-one]
500 to 1000 nM | < 100 nM | CCc1ncc(-c2cc(C)no2)c([C@H]2CCCN(CC(=O)N3CCOCC3)CC2)n1 [Example 18, (S)-2-(4-(2-Ethyl-5-(3-methylisoxazol-5-yl)pyrimidin-4-yl)azepan-1-yl)-1-morpholinoethan-1-one]
